Test: ORAC value (Oxygen Radical Absorbing Capacity)
Details: ratio to other antioxidants; no test described

In the case of `CCN(CC)CCn1c(=O)c(Cc2ccc(OC)cc2)nc2ccccc21` [Caroverin, 1-(2-Diethylaminoethyl)-3-(p-methoxy-benzyl)-1,2-dihydrochinoxalin-2-on], the “ORAC-Wert, höher gegenüber allen anderen bekannten Antioxidantien wie Vitamin C, E oder Glutathion” value is reported as no more than 1000 fach.

Source: patent publication EP2522350A1, “Use of the active ingredient combination of a 1-diethylaminoethyl-3-chinoxalin-2-on derivative and an oxysterol for breaking resistance in the treatment of cancer and strengthening the immune system against cancer, bacterial and viral diseases, autoimmune diseases, increased stress and …” (Immunopharm AG, priority 2011, dated 2012)
